# Laboratory results: patent US12409199B2, “Methods of treating endometriosis and other noncancer gynecological disorders with hemp extract” (Ecofibre USA Inc., priority 2021, dated 2025)
# Like-named read-outs stand apart in the source and are kept apart here.
# Assays:
# [1] = tested on: patient derived organoids; assay: Death of patient derived organoids, % of cells that died compared to control (Table 4); format: cell-based, human
# Method: In addition to the agents listed above, several other drugs were tested to see if they influenced organoid growth. […] This is consistent with the patient's actual lack of response to treatment with paclitaxel.
# [2] = tested on: stage IV chemoresistant endometrial cancer with metastatic disease; assay: Treatment of a patient with stage IV chemoresistant endometrial cancer, PET/CT follow up
# Excerpt: Soon after the experiments detailed above a person came to us. They were initially diagnosed with endometriosis, and later diagnosed with endometrial cancer after presenting with significant pain and discomfort. They had already undergone a total hysterectomy and bilateral salpingo-oophorectomy followed by five rounds of chemotherapy. Each of the first five rounds of chemotherapy was a combined chemotherapy with Paclitaxil/Carboplatin.
# See, Tables 1 and 2, below. […] As such, […] began standard protocol GemCap treatment in combination with a regime of 30 mg of BSHE twice daily via oral mucosal delivery and 75 mg of FSHE once daily via intravaginal delivery.
# [3] = cited from earlier work
# [4] = tested on: organoids derived from ovarian cancer tissue; assay: Impact of pH on % viable organoids (FIG. 9)
# [5] = oral; cited from earlier work
# [6] = tested on: patient derived endometrial cancer cells; assay: Patient-derived xenograft (PDX) mice, endometrial cancer tumor volume (FIG. 7); format: in vivo; conditions: for decrease in tumor volume compared to starting size: day 14 (6 doses)
# Method: Mouse studies are useful to take cell-based applications and confirm their efficacy in a whole animal system. Furthermore, the mice allow for testing of systemic delivery of the drugs. […] The mice tests were performed according to the protocol in the method section, below.
# Generally, EC stem cells from the same patients that participated in the organoid studies for endometrial cancer, were injected into the mice, and allowed to grow. After tumors reached a certain size, the mice were either injected (3 times/week) with the extract-delivery vehicle or with the particular cannabis extract. After a certain amount of time elapsed, tumor size was measured. The details regarding patient-derived xenograft methodology and experimental protocol are provided in the Methods section.
# The % change is an average number taken from tumor volumes of three mice compared to the starting average tumor volume on day 0 of treatment. Change can either be positive (tumor increases in size) or negative (tumor decreases in size).
# Human patient cells from endometrial cancer were injected subcutaneously into female NOD/SCID gamma mice after resuspending in 100 μL solution. […] Tumor size was measured before treatment, followed by twice a week measurements. All treatment group mice were kept alive for up to 10 weeks after drug injection or until the tumor volume grows bigger than 2500 mm^3.
# Tumor size was measured along with body weight at the time of tissue collection. All tumor tissues were removed carefully from the euthanized mouse body. Tumor tissue samples were kept for histology, proteomics, genomics, and other downstream processing. All downstream processing was completed following NCI Patient-Derived Models Repository SOPs.
# [7] = tested on: non-transformed cells; conditions: cited from earlier work
# [8] = tested on: endometriosis based organoids; assay: % viability of endometriosis based organoids (FIG. 6A/6B); format: cell-based, human
# Method: After narrowing down the range in which 50% of endometrial cancer organoids were inhibited from forming in the presence of BSHE, we then turned to other cannabis extracts comprising CBE to determine their efficacy in inhibiting cancerous organoid formation. […] These cannabis extracts were then tested against endometrial based organoids, which confirm the efficacy across the different cells, both in the endometrial cancer based organoids as well as in the endometriosis based organoids.
# FIG. 6B then tests the same endometrial based organoids with a CBDA isolate. Here, slightly higher concentrations were required to reach below 10% viability. […] However, these studies confirm that the efficacy of the CE comprising CBD was conserved over different grades of endometrial cancer and also to endometriosis based organoids.
# [9] = tested on: organoids crafted from the patient's endometrial cancer; assay: Response of organoids crafted from the patient's endometrial cancer to alternative chemotherapies and BSHE; format: cell-based, human
# Excerpt: See, Tables 1 and 2, below.
# [10] = before cannabis extract treatment
molecule,measurement,setting,value
5-Fluorouaracil/Capecitabine,% Cell Death,[1],61%
"CCN1CCN(Cc2ccc(Nc3ncc(F)c(-c4cc(F)c5nc(C)n(C(C)C)c5c4)n3)nc2)CC1 [Abemaciclib, reference compound]",adverse effects of earlier therapy,"[2]; human, in vivo",severe adverse effects
"C=C(C)[C@@H]1CCC(C)=C[C@H]1c1c(O)cc(CCCCC)cc1O [CBD isolate, cannabidiol]",potential for abuse or dependence,[3]; WHO 41st Expert Committee on Drug Dependence,no potential for abuse and no potential to produce dependence
same,well tolerated dose,"[3]; chronic use, humans","up to 1,500 mg/day"
same,"effect on physiological parameters (heart rate, blood pressure and body temperature), gastrointestinal transit, psychomotor or psychological functions",[3]; in vivo,does not affect
same,efficacy compared with native pH,"[4]; 10 μg/mL, pH 8",virtually no change
same,viability at 10 µg/mL,[4]; pH 4,< 1%
same,viability at 10 µg/mL,[4]; read-out: % of viable organoids,~12%
same,delayed maximum plasma concentration (time) in some individuals,[5],up to 6 hours
same,tumor response over the 21 days of treatment,[6]; 30 mg/kg injected 3 times/week,not as responsive
same,decrease in tumor volume compared to starting size,[6]; 30 mg/kg,less than 50%
same,toxicity,[7],non-toxic
same,lowest dose at which the organoids are completely treated,"[8]; tested at 0, 1, 2, 3, 4, 5, 7, 10 μg/mL, FIG. 6A",5 µg/mL
"C=C(C)[C@@H]1CCC(C)=C[C@H]1c1c(O)cc(CCCCC)c(C(=O)O)c1O [CBDA isolate, cannabidiolic acid]",increase in average tumor volume vs day 0,"[6]; 30 mg/kg injected 3 times/week, day 7 (3 doses)",greater than 30%
same,decrease in average tumor volume vs day 0,"[6]; 30 mg/kg injected 3 times/week, day 10",greater than 30%
same,overall decrease in average tumor volume in three days,"[6]; 30 mg/kg, day 7 to day 10",greater than 60%
same,decrease in tumor volume compared to starting size,[6]; 30 mg/kg,70%
same,decrease in average tumor volume,"[6]; 30 mg/kg, day 21 (9 doses)",~100%
same,viability outcome,"[8]; 50 μg/mL, FIG. 6B",complete resolution
same,viability at 15 µg/mL,"[8]; Homo sapiens, 15 μg/mL, FIG. 6B",< 50%
same,viability at 25 µg/mL,"[8]; Homo sapiens, 25 μg/mL, FIG. 6B, <10% is considered 95-100% cell death",< 10%
N.N.O=C([O-])C1(C(=O)[O-])CCC1.[Pt+2] [Carboplatin],% Cell Death,[1],30%
N.N.[Cl][Pt][Cl] [Cisplatin],% Cell Death,[1],36%
O=P1(N(CCCl)CCCl)NCCCO1 (centres unmarked) [Cyclosphosphamide],% Cell Death,[1],32%
Atezolizumab,adverse effects of earlier therapy,[2]; [10],severe adverse effects
same,clinical outcome of earlier therapy,[2]; [10],failed
Bleomycin,% Cell Death,[1],53%
Paclitaxil/Carboplatin [reference compound],clinical outcome of earlier therapy,[2]; [10],ineffective
gemcitabine/capecitabine [GemCap],response of the patient's organoids,[9],partial response
